US20070149519A1, “Benzimidazol substituted thiopene derivatives with activity on ikk3” (priority 2004, published 2007)

Target: T1, Recombinant human IKK3 (Homo sapiens, UniProt Q14164)
T1 construct: FLAG; made in house
T1 sequence (Q14164 1-716): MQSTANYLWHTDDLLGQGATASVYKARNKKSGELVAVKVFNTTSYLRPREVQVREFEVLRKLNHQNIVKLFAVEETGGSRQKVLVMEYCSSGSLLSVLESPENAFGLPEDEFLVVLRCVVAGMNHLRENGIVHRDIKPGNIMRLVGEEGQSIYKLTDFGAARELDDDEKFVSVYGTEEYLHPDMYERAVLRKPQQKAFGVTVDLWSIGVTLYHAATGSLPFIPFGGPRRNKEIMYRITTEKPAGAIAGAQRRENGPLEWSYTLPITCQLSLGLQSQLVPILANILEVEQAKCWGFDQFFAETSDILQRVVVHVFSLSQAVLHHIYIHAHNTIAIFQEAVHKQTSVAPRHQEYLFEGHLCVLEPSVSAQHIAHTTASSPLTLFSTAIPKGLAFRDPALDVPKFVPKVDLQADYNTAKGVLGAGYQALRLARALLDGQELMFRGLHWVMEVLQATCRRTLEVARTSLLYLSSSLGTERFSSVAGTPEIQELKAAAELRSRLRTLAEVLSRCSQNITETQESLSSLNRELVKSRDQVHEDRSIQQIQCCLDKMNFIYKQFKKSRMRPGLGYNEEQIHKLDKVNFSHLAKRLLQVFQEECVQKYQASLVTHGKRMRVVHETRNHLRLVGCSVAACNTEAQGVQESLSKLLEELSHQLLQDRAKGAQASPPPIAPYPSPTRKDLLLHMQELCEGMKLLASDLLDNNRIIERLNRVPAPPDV
Assay: IKK3 TR-FRET kinase assay
Format: biochemical
Settings: IKK3 15 nM, GST-IκBα 25 nM, ATP 2 μM, 15 minutes at room temperature
Experimental: Recombinant human IKK3 was expressed in baculovirus as a FLAG tagged fusion protein, and its activity was assessed using a time-resolved fluorescence resonance energy transfer (TR-FRET) assay. Briefly, IKK3 (15 nM final) diluted in assay buffer (50 mM HEPES, 10 mM MgCl2, 1 mM CHAPS pH 7.4 with 1 mM DTT and 0.01% w/v BSA) was added to wells containing various concentrations of compound or DMSO vehicle (3% final). The reaction was initiated by the addition of GST-IκBα substrate (25 nM final)/ATP (2 μM final), in a total volume of 30 μl. The reaction was incubated for 15 minutes at room temperature, then terminated by the addition of 15 μl of 50 mM EDTA. Detection reagent (15 μl) in buffer (100 mM HEPES pH 7.4, 150 mM NaCl and 0.1% w/v BSA) containing antiphosphoserine-IκBα-32/36 monoclonal antibody 12C2 (Cell Signalling Technology, Massachusetts, USA) labelled with W-1024 europium chelate (Wallac OY, Turku, Finland), and an APC-labelled anti-GST antibody (Prozyme, San Leandro, Calif., USA) was added and the reaction was further incubated for 45 minutes at room temperature. The degree of phosphorylation of GST-IκBα was measured using a Packard Discovery plate reader (Perkin-Elmer Life Sciences, Pangbourne, UK) as a ratio of specific 665 nm energy transfer signal to reference europium 620 nm signal.

Q: How did the IC50 turn out when `COc1cc2ncn(-c3cc(OCc4ccc(CO)cc4)c(C#N)s3)c2cc1OC` [Example 1, 5-[5,6-Bis(methyloxy)-1H-benzimidazol-1-yl]-3-({[4-(hydroxymethyl)phenyl]methyl}oxy)-2-thiophenecarbonitrile] was run?
A: < 1000 nM

Q: How did the IC50 turn out when `COc1cc2ncn(-c3cc(O[C@H](C)c4ccccc4Cl)c(C#N)s3)c2cc1OC` [Example 2, 5-[5,6-Bis(methyloxy)-1H-benzimidazol-1-yl]-3-{[(1R)-1-(2-chlorophenyl)ethyl]oxy}-2-thiophenecarbonitrile] was run?
A: 1000 to 10000 nM

Q: For `Cc1ccccc1COc1cc(-n2cnc3ccccc32)sc1C#N` [Example 3, 5-(1H-Benzimidazol-1-yl)-3-{[(2-methylphenyl)methyl]oxy}-2-thiophenecarbonitrile], which IC50 is on record?
A: < 1000 nM

Q: `N#Cc1sc(-n2cnc3ccccc32)cc1OCc1ccccc1` [Example 4, 5-(1H-Benzimidazol-1-yl)-3-[(phenylmethyl)oxy]-2-thiophenecarbonitrile] was tested. Which IC50 did it give?
A: 1000 to 10000 nM

Q: With `COc1cc2ncn(-c3cc(OCc4ccccc4C(F)(F)F)c(C#N)s3)c2cc1OC` [Example 5, 5-[5,6-Bis(methyloxy)-1H-benzimidazol-1-yl]-3-({[2-(trifluoromethyl)phenyl]methyl}oxy)-2-thiophenecarbonitrile] as the compound, how does the IC50 read?
A: < 1000 nM

Q: How did the IC50 turn out when `COc1cc2ncn(-c3cc(OCc4ccc5nnn(C)c5c4)c(C#N)s3)c2cc1OC` [Example 6, 5-[5,6-bis(methyloxy)-1H-benzimidazol-1-yl]-3-{[(1-methyl-1H-1,2,3-benzotriazol-6-yl)methyl]oxy}-2-thiophenecarbonitrile] was run?
A: < 1000 nM

Q: Which IC50 does the source give for `COc1cc2c(cc1OCCN1CCOCC1)ncn2-c1cc(OCc2ccccc2C(F)(F)F)c(C#N)s1` [Example 7, 5-(6-(Methyloxy)-5-([2-(4-morpholinyl)ethyl]oxy)-1H-benzimidazol-1-yl)-3-({[2-(trifluoromethyl)phenyl]methyl}oxy)-2-thiophene carbonitrile] here?
A: < 1000 nM

Q: How did the IC50 turn out when `COc1cc2ncn(-c3cc(OCc4cc(F)ccc4F)c(C#N)s3)c2cc1OC` [Example 8, 5-[5,6-Bis(methyloxy)-1H-benzimidazol-1-yl]-3-{[(2,5-difluorophenyl)methyl]oxy}-2-thiophenecarbonitrile] was run?
A: < 1000 nM

Q: How did the IC50 turn out when `COc1cc2ncn(-c3cc(OCc4ccccc4S(C)(=O)=O)c(C#N)s3)c2cc1OC` [Example 9, 5-[5,6-Bis(methyloxy)-1H-benzimidazol-1-yl]-3-({[2-(methylsulfonyl)phenyl]methyl}oxy)-2-thiophenecarbonitrile] was run?
A: < 1000 nM

Q: For `N#Cc1sc(-n2cnc3cc(Cl)ccc32)cc1OCc1ccccc1` [Example 10, 5-(5-Chloro-1H-benzimidazol-1-yl)-3-[(phenylmethyl)oxy]-2-thiophenecarbonitrile], which IC50 is on record?
A: 1000 to 10000 nM

Q: For `COc1cc2ncn(-c3cc(OCc4c(F)cccc4F)c(C#N)s3)c2cc1OC` [Example 11, 5-[5,6-bis(Methyloxy)-1H-benzimidazol-1-yl]-3-{[(2,6-difluorophenyl)methyl]oxy}-2-thiophenecarbonitrile], which IC50 is on record?
A: < 1000 nM

Q: Which IC50 does the source give for `COc1cc2c(cc1OCCCO)ncn2-c1cc(OCc2ccccc2C(F)(F)F)c(C#N)s1` [Example 12, 5-[5-[(3-Hvdroxypropyl)oxy]-6-(methyloxy)-1H-benzimidazol-1-yl]-3-({[2-(trifluoromethyl)phenyl]methyl}oxy)-2-thiophenecarbonitrile] here?
A: < 1000 nM

Q: `COc1cc2ncn(-c3cc(OCc4ccncc4Br)c(C#N)s3)c2cc1OC` [Example 13, 5-[5,6-Bis(methyloxy)-1H-benzimidazol-1-yl]-3-{[(3-bromo-4-pyridinyl)methyl]oxy}-2-thiophenecarbonitrile] was tested. Which IC50 did it give?
A: 1000 to 10000 nM

Q: For `COc1cc2ncn(-c3cc(OCC4CCCCC4)c(C#N)s3)c2cc1OC` [Example 14, 5-[5,6-Bis(methyloxy)-1H-benzimidazol-1-yl]-3-[(cyclohexylmethyl)oxy]-2-thiophenecarbonitrile], which IC50 is on record?
A: < 1000 nM

Q: Which IC50 does the source give for `N#Cc1sc(-n2cnc3cc(C(=O)NCCN4CCOCC4)ccc32)cc1OCc1ccccc1C(F)(F)F` [Example 15, 1-[5-cyano-4-({[2-(trifluoromethyl)phenyl]methyl}oxy)-2-thienyl]-N-[2-(4-morpholinyl)ethyl]-1H-benzimidazole-5-carboxamide] here?
A: < 1000 nM

Q: Which IC50 does the source give for `COc1cc2ncn(-c3cc(O[C@H](C)c4ccccc4C(F)(F)F)c(C#N)s3)c2cc1OC` [Example 16, 5-[5,6-Bis(methyloxy)-1H-benzimidazol-1-yl]-3-({(1 R)-1-[2-(trifluoromethyl)phenyl]ethyl}oxy)-2-thiophenecarbonitrile] here?
A: 1000 to 10000 nM

Q: Which IC50 does the source give for `COc1cc2ncn(-c3cc(OCCc4ccccc4)c(C#N)s3)c2cc1OC` [Example 17, 5-[5,6-bis(methyloxy)-1H-benzimidazol-1-yl]-3-[(2-phenylethyl)oxy}-2-thiophenecarbonitrile] here?
A: < 1000 nM

Q: `COc1cc2ncn(-c3cc(OCc4ccccc4OC(F)(F)F)c(C#N)s3)c2cc1OC` [Example 18, 5-[5,6-bis(methyloxy)-1H-benzimidazol-1-yl]-3-[({2-[(trifluoromethyl)oxy]phenyl}methyl)oxy]-2-thiophenecarbonitrile] was tested. Which IC50 did it give?
A: < 1000 nM

Q: For `COc1ccccc1COc1cc(-n2cnc3cc(OC)c(OC)cc32)sc1C#N` [Example 19, 5-[5,6-bis(methyloxy)-1H-benzimidazol-1-yl]-3-({[2-(methyloxy)phenyl]methyl}oxy)-2-thiophenecarbonitrile], which IC50 is on record?
A: 1000 to 10000 nM

Q: With `COc1cc2ncn(-c3cc(OCCN4CCOCC4)c(C#N)s3)c2cc1OC` [Example 20, 5-[5,6-bis(methyloxy)-1H-benzimidazol-1-yl]-3-{[2-(4-morpholinyl)ethyl]oxy}-2-thiophenecarbonitrile] as the compound, how does the IC50 read?
A: 1000 to 10000 nM

Q: Which IC50 does the source give for `COc1cc2ncn(-c3cc(OCCN4CCCC4=O)c(C#N)s3)c2cc1OC` [Example 21, 5-[5,6-bis(methyloxy)-1H-benzimidazol-1-yl]-3-{[2-(2-oxo-1-pyrrolidinyl)ethyl]oxy}-2-thiophenecarbonitrile] here?
A: < 1000 nM

Q: With `COc1cc2ncn(-c3cc(OCC4CCCO4)c(C#N)s3)c2cc1OC` (stereo not shown) [Example 22, 5-[5,6-bis(methyloxy)-1H-benzimidazol-1-yl]-3-[(tetrahydro-2-furanylmethyl)oxy]-2-thiophenecarbonitrile] as the compound, how does the IC50 read?
A: 1000 to 10000 nM

Q: `COc1cc2ncn(-c3cc(OCC4CCCCO4)c(C#N)s3)c2cc1OC` (stereo not shown) [Example 23, 5-[5,6-bis(methyloxy)-1H-benzimidazol-1-yl]-3-[(tetrahydro-2 H-pyran-2-ylmethyl)oxy]-2-thiophenecarbonitrile] was tested. Which IC50 did it give?
A: < 1000 nM

Q: For `COc1cc2ncn(-c3cc(OCCOc4ccccc4)c(C#N)s3)c2cc1OC` [Example 24, 5-[5,6-bis(methyloxy)-1H-benzimidazol-1-yl]-3-{[2-(phenyloxy)ethyl]oxy}-2-thiophenecarbonitrile], which IC50 is on record?
A: < 1000 nM

Q: With `CCC[C@H](Oc1cc(-n2cnc3cc(OC)c(OC)cc32)sc1C#N)c1ccccc1Cl` [Example 25, 5-[5,6-bis(methyloxy)-1H-benzimidazol-1-yl]-3-{[(1S)-1-(2-chlorophenyl)butyl]oxy}-2-thiophenecarbonitrile] as the compound, how does the IC50 read?
A: < 1000 nM

Q: Which IC50 does the source give for `COc1cc2ncn(-c3cc(OCc4ccsc4)c(C#N)s3)c2cc1OC` [Example 26, 5-[5,6-bis(methyloxy)-1H-benzimidazol-1-yl]-3-[(3-thienylmethyl)oxy]-2-thiophenecarbonitrile] here?
A: < 1000 nM

Q: Which IC50 does the source give for `COc1cc2ncn(-c3cc(OCc4cccs4)c(C#N)s3)c2cc1OC` [Example 27, 5-[5,6-bis(methyloxy)-1H-benzimidazol-1-yl]-3-[(2-thienylmethyl)oxy]-2-thiophenecarbonitrile] here?
A: < 1000 nM

Q: For `CC[C@@H](C)Oc1cc(-n2cnc3cc(OC)c(OC)cc32)sc1C#N` [Example 28, 5-[5,6-bis(methyloxy)-1H-benzimidazol-1-yl]-3-{[(1 R)-1-methylpropyl]oxy}-2-thiophenecarbonitrile], which IC50 is on record?
A: 1000 to 10000 nM
